In ChEMBL document CHEMBL1156967 (Bioorg Med Chem Lett, 2010):

Experiments:
Rattus norvegicus [1] = experiment: Antiinflammatory activity in Lewis rat plasma assessed as reduction in LPS-stimulated TNFalpha accumulation at 5 mg/kg, ig administered 4 hrs before LPS challenge measured after […] by ELISA; assay type: functional; conditions: po, route intragastric
[2] = biological target: Mitogen-activated protein kinase 14 (Homo sapiens, UniProt Q16539); experiment: Inhibition of p38alpha assessed as gamma-[33P]ATP incorporation by scintillation counting
Sequence of Mitogen-activated protein kinase 14 (Q16539 whole entry): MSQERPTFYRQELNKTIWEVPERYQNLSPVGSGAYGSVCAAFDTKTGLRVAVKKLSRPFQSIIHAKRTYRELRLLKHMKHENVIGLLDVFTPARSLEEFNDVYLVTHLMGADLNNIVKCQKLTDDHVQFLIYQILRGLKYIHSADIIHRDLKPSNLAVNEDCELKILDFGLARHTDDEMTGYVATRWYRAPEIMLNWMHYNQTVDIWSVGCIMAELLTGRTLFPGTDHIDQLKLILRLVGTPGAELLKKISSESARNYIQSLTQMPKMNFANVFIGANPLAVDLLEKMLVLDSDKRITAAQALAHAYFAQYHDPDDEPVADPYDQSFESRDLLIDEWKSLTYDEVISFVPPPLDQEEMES

[3] = biological target: Mitogen-activated protein kinase 11 (Homo sapiens, UniProt Q15759); experiment: Inhibition of p38beta assessed as gamma-[33P]ATP incorporation by scintillation counting
Sequence of Mitogen-activated protein kinase 11 (Q15759 whole entry): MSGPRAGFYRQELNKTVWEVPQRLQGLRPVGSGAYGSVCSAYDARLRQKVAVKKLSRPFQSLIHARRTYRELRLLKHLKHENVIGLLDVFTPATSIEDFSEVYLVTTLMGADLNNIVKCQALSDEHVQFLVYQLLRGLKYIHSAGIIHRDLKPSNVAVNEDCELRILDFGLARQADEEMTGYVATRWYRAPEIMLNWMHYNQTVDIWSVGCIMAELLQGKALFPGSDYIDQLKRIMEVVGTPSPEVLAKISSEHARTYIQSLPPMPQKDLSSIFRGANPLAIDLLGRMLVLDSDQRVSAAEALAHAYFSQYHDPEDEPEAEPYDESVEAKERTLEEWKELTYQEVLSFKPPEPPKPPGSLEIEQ

[4] = Selectivity ratio of IC50 for p38 beta to IC50 for p38alpha
[5] = Intrinsic clearance in human liver microsomes; assay type: ADME, Microsome
Mus musculus = experiment: Antiarthritic activity against collagen-induced arthritis in DBA/1 mouse chronic CIA model assessed as incidence of arthritis at 30 mg/kg, po after 21 days; assay type: functional
[6] = Half life in human liver microsomes; assay type: ADME, Microsome
hERG (KCNH2) = hERG (KCNH2) (Homo sapiens, UniProt Q12809); experiment: Displacement of dofetilide from human ERG at 10 uM; conditions: probe dofetilide
Sequence of hERG (KCNH2) (Q12809 whole entry): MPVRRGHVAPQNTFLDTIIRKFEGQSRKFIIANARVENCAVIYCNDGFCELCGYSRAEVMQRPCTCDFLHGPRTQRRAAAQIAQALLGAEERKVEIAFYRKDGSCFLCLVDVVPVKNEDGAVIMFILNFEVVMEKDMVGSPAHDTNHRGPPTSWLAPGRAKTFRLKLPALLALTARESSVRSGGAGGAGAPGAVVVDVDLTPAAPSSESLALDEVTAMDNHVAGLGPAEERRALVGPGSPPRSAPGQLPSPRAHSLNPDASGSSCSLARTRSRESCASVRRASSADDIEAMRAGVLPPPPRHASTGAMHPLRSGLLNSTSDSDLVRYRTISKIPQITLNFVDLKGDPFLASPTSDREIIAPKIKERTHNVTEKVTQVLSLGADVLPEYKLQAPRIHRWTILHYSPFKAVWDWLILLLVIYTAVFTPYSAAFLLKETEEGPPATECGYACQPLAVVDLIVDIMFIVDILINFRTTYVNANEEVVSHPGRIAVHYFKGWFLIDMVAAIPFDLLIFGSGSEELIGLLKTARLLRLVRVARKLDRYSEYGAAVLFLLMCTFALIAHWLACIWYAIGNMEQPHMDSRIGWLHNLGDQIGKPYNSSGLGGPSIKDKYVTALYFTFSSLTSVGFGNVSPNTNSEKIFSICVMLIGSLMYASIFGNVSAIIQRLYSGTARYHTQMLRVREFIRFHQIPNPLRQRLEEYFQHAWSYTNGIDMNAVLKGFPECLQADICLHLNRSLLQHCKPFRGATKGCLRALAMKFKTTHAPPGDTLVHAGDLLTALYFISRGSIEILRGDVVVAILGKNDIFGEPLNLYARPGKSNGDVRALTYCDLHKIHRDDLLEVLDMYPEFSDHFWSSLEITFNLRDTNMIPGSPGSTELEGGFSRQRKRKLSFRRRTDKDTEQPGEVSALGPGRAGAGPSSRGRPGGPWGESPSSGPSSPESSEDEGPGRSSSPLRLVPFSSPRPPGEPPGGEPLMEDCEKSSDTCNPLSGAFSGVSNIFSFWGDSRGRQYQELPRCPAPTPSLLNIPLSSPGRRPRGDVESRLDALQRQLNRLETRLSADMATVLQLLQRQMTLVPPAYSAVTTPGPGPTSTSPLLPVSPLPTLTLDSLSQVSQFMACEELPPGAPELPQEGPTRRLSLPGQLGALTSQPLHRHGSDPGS

Rattus norvegicus [7] = experiment: Antiinflammatory activity in Lewis rat assessed as reduction in LPS-stimulated TNFalpha accumulation at 1 mg/kg, ig administered 4 hrs before LPS challenge measured after […] by ELISA; assay type: functional; conditions: po, route intragastric
Blood = experiment: Antiinflammatory activity against LPS-induced TNFalpha production in human whole blood treated 1 hr before LPS challenge measured after 4 hrs by ELISA; assay type: functional, tissue-based
Rattus norvegicus [8] = experiment: Antiinflammatory activity in Lewis rat plasma assessed as reduction in LPS-stimulated TNFalpha accumulation at 20 mg/kg, ig administered 4 hrs before LPS challenge measured after […] by ELISA; assay type: functional; conditions: po, route intragastric
[9] = biological target: Voltage-gated inwardly rectifying potassium channel KCNH2 (Homo sapiens, UniProt Q12809); experiment: Inhibition of human ERG by patch clamp technique
Sequence of Voltage-gated inwardly rectifying potassium channel KCNH2 (Q12809 whole entry): as above

[10] = Clearance in dog at 2.5 mg/kg, iv; assay type: ADME, organism-based, Canis lupus familiaris; set-up: dose 2.5 mg/kg, route intravenous; conditions: in vivo
[11] = Half life in rat at 5 mg/kg, iv; assay type: ADME, organism-based; set-up: dose 5 mg/kg, route intravenous; conditions: in vivo
[12] = Clearance in rat at 5 mg/kg, iv; assay type: ADME, organism-based; set-up: dose 5 mg/kg, route intravenous; conditions: in vivo
[13] = Volume of distribution in rat at 5 mg/kg, iv; assay type: ADME, organism-based; set-up: dose 5 mg/kg, route intravenous; conditions: in vivo
[14] = Bioavailability in rat at 5 mg/kg, iv; assay type: ADME, organism-based; conditions: in vivo
[15] = Bioavailability in dog at 2.5 mg/kg, iv; assay type: ADME, organism-based, Canis lupus familiaris; conditions: in vivo
[16] = Half life in dog at 2.5 mg/kg, iv; assay type: ADME, organism-based, Canis lupus familiaris; set-up: dose 2.5 mg/kg, route intravenous; conditions: in vivo
[17] = Volume of distribution in dog at 2.5 mg/kg, iv; assay type: ADME, organism-based, Canis lupus familiaris; set-up: dose 2.5 mg/kg, route intravenous; conditions: in vivo

SMILES	IC50 [2] [nM]	IC50 [3] [nM]	inhibition in vivo at 5 mg/kg (Rattus norvegicus [1]) [%]	further results
O=C(O)CN1CCC(c2[nH]nc(-c3ccc(Cl)cc3)c2-c2ccncc2)CC1	126	4340	20	
Clc1ccc(-c2n[nH]c(C3CCN(C4CCOC4)CC3)c2-c2ccncn2)cc1 (centres undefined)	31	7410	70	CLint scaled [5]: 16.3 mL/min/kg; Activity (Mus musculus): 50%; half-life [6]: 61.3 min; inhibition in vivo at 1 mg/kg (Rattus norvegicus [7]): 80%; inhibition at 10 µM (hERG (KCNH2)): 35%; IC50 (Blood): 520 nM
CS(=O)(=O)N1CCC(c2[nH]nc(-c3ccc(Cl)cc3)c2-c2ccncn2)CC1	198	4100	89	CLint scaled [5]: 18.1 mL/min/kg; Activity (Mus musculus): 44%; half-life [6]: 53.9 min; inhibition in vivo at 1 mg/kg (Rattus norvegicus [7]): 26%; IC50 (Blood): > 5000 nM
Clc1ccc(-c2n[nH]c(C3CCN(Cc4ccncc4)CC3)c2-c2ccncn2)cc1	47	3290	27	
Clc1ccc(-c2n[nH]c(C3CCN(C4CCOCC4)CC3)c2-c2ccncn2)cc1	205	9500	46	IC50 (Blood): > 5000 nM
CN(C)CC(=O)N1CCC(c2[nH]nc(-c3ccc(Cl)cc3)c2-c2ccncc2)CC1	80	6720	85	
CC(C)(O)CN1CCC(c2[nH]nc(-c3ccc(Cl)cc3)c2-c2ccncn2)CC1	88	9780	34	inhibition in vivo at 1 mg/kg (Rattus norvegicus [7]): 3%; IC50 (Blood): 1000 nM
O[C@H]1CCC[C@@H]1N1CCC(c2[nH]nc(-c3ccc(Cl)cc3)c2-c2ccncn2)CC1	19	3380	70	inhibition in vivo at 1 mg/kg (Rattus norvegicus [7]): 40%
COCC(=O)N1CCC(c2[nH]nc(-c3ccc(Cl)cc3)c2-c2ccncc2)CC1		3450	90	
CS(=O)(=O)N1CCC(c2[nH]nc(-c3ccc(Cl)cc3)c2-c2ccncc2)CC1	70	3530	75	
CN1CCC(c2[nH]nc(-c3ccc(C(F)(F)F)cc3)c2-c2ccncc2)CC1	40.5	3770	22	
COCC(=O)N1CCC(c2[nH]nc(-c3ccc(Cl)cc3)c2-c2ccncn2)CC1		3250	88	inhibition in vivo at 1 mg/kg (Rattus norvegicus [7]): 71%
O=C(CO)N1CCC(c2n[nH]c(-c3ccc(Cl)cc3)c2-c2ccncn2)CC1 [SD-0006]		3450	87	clearance [10]: 2.92 mL/min/kg; half-life [11]: 243 min; clearance [12]: 4.96 mL/min/kg; Vd [13]: 1.74 L/kg; CLint scaled [5]: < 8 mL/min/kg; Activity (Mus musculus): 16%; half-life [6]: > 120 min; inhibition in vivo at 1 mg/kg (Rattus norvegicus [7]): 81%; bioavailability [14]: > 80%; inhibition at 10 µM (hERG (KCNH2)): 16%; bioavailability [15]: > 80%; half-life [16]: 269 min; Vd [17]: 1.07 L/kg
OCCN1CCC(c2[nH]nc(-c3ccc(Cl)cc3)c2-c2ccncc2)CC1	41	3390	88	CLint scaled [5]: 32 mL/min/kg; Activity (Mus musculus): 70%; half-life [6]: 30.5 min; inhibition at 10 µM (hERG (KCNH2)): 61%
CC(=O)N1CCC(c2[nH]nc(-c3ccc(Cl)cc3)c2-c2ccncc2)CC1	68	3130	66	CLint scaled [5]: 22.5 mL/min/kg; Activity (Mus musculus): 50%; half-life [6]: 43.3 min
CC(=O)N1CCC(c2[nH]nc(-c3ccc(Cl)cc3)c2-c2ccncn2)CC1	152	3710	90	CLint scaled [5]: 9.5 mL/min/kg; Activity (Mus musculus): 50%; half-life [6]: 102 min; inhibition in vivo at 1 mg/kg (Rattus norvegicus [7]): 72%
COCCCN1CCC(c2[nH]nc(-c3ccc(Cl)cc3)c2-c2ccncc2)CC1	106	6550		
COCCN1CCC(c2[nH]nc(-c3ccc(Cl)cc3)c2-c2ccncc2)CC1	70	6720	84	CLint scaled [5]: 47.7 mL/min/kg; Activity (Mus musculus): 22%; half-life [6]: 21.5 min; inhibition at 10 µM (hERG (KCNH2)): 74%
CN(C)C(=O)N1CCC(c2[nH]nc(-c3ccc(Cl)cc3)c2-c2ccncn2)CC1	88	3480	88	inhibition in vivo at 1 mg/kg (Rattus norvegicus [7]): 53%

Continued, in another order:

IC50 [2] [nM]	IC50 [3] [nM]	SMILES	inhibition in vivo at 5 mg/kg (Rattus norvegicus [1]) [%]	further results
54.7	1960	CN1CCC(c2[nH]nc(-c3ccc(F)cc3)c2-c2ccncc2)CC1	77	Ratio IC50 [4]: 35
184	2780	CC(C)(CO)N1CCC(c2[nH]nc(-c3ccc(Cl)cc3)c2-c2ccncn2)CC1	0	
	1790	O=C(CO)N1CCC(c2[nH]nc(-c3ccc(Cl)cc3)c2-c2ccncc2)CC1	85	CLint scaled [5]: 15.8 mL/min/kg; Activity (Mus musculus): 60%; half-life [6]: 62 min; inhibition at 10 µM (hERG (KCNH2)): 24%
	1050	CN1CCC(c2[nH]nc(-c3cccc(Cl)c3)c2-c2ccncc2)CC1	27	
99.6	3070	Cc1ccc(-c2n[nH]c(C3CCN(C)CC3)c2-c2ccncc2)cc1		inhibition in vivo at 20 mg/kg (Rattus norvegicus [8]): 44%
	2770	CC(=O)N1CCC(c2[nH]nc(-c3ccc(F)cc3)c2-c2ccncc2)CC1	41	IC50 [9]: 790 nM
	2320	CN1CCC(c2[nH]nc(-c3ccc(Cl)cc3)c2-c2ccncn2)CC1	63	CLint scaled [5]: 31.5 mL/min/kg; Activity (Mus musculus): 20%; half-life [6]: 31.2 min; inhibition in vivo at 1 mg/kg (Rattus norvegicus [7]): 36%; inhibition at 10 µM (hERG (KCNH2)): 51%; IC50 (Blood): 800 nM
26.5	164	CN1CCC(c2[nH]nc(-c3cccc(C(F)(F)F)c3)c2-c2ccncc2)CC1	6	
14	1650	NS(=O)(=O)N1CCC(c2[nH]nc(-c3ccc(Cl)cc3)c2-c2ccncc2)CC1	68	
31.6	2680	CN1CCC(c2[nH]nc(-c3ccc(Cl)cc3)c2-c2ccncc2)CC1	71	Ratio IC50 [4]: 84
67.3	2350	Cc1cccc(-c2n[nH]c(C3CCN(C)CC3)c2-c2ccncc2)c1		inhibition in vivo at 20 mg/kg (Rattus norvegicus [8]): 81%
35	2540	OCCN1CCC(c2[nH]nc(-c3ccc(Cl)cc3)c2-c2ccncn2)CC1	88	CLint scaled [5]: 21.4 mL/min/kg; Activity (Mus musculus): 61%; half-life [6]: 47.6 min; inhibition in vivo at 1 mg/kg (Rattus norvegicus [7]): 80%; inhibition at 10 µM (hERG (KCNH2)): 46%; IC50 (Blood): 490 nM
90	2520	CN1CCCC(c2[nH]nc(-c3ccc(F)cc3)c2-c2ccncc2)C1 (centres undefined)	63	Ratio IC50 [4]: 28
48.3	404	Fc1ccc(-c2n[nH]c(C3CCCNC3)c2-c2ccncc2)cc1 (centres undefined)		Ratio IC50 [4]: 6
25.3	510	Fc1ccc(-c2n[nH]c(C3CCNCC3)c2-c2ccncc2)cc1	2	
